Laboratory results taken from ChEMBL document CHEMBL4196243, “Antileishmanial Carbasugars from Geosmithia langdonii” (J Nat Prod, 2018).

System: Leishmania donovani
Experiment: Antileishmanial activity against Leishmania donovani promastigotes by alamar blue dye based fluorescence assay
Assay type: functional, organism-based

SMILES	IC50	IC90
N=C(N)c1ccc(OCCCCCOc2ccc(C(=N)N)cc2)cc1 [PENTAMIDINE]	9 µM	17 µM
C[C@@H]1C[C@H](OC(=O)c2cc(O)ccc2O)[C@H](O)[C@H](O)[C@@H]1O	100 µM	> 134 µM
C[C@@H]1C[C@H](O)[C@H](O)[C@H](O)[C@@H]1OCc1cc(O)ccc1O	57 µM	119 µM
C[C@@H]1[C@H](O)[C@@H](C)/C=C/C=C/C=C/C=C/C=C/C=C/C=C/[C@H](O[C@@H]2O[C@H](C)[C@@H](O)[C@H](N)[C@@H]2O)C[C@@H]2O[C@](O)(C[C@@H](O)C[C@@H](O)[C@H](O)CC[C@@H](O)C[C@@H](O)CC(=O)O[C@H]1C)C[C@H](O)[C@H]2C(=O)O [AMPHOTERICIN B]		0.4 µM
